The supplement of paper PMC10331698
± gives the standard deviation of the averaged measurements.

Experiments:
Assay in all cases: level (log10 ratio to DMSO vehicle control); higher = higher biomarker level / cell amount than vehicle control
[1] = compound: C=CC(=O)OCC(F)(F)C(F)(F)C(F)(F)C(F)(F)C(F)(F)C(F)(F)C(F)(F)F [1H,1H-Perfluorooctyl acrylate]; details: in DMSO
Procedure: (§1)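 BioMAP Diversity Plus panel of 12 human primary cell co-culture systems (3C, 4H, LPS, SAg, BT, BF4T, BE3C, CASM3C, HDF3CGF, KF3CT, MyoF, Mphg). Compounds were added 1 h before stimulation and left for 24 h (MyoF 48 h; BT 72 h for soluble read-outs or 6 d for IgG). Biomarkers were read by ELISA, cytotoxicity by SRB, PBMC viability and proliferation by Alamar Blue. Each well value was divided by the mean of 8 DMSO control wells on the same plate and log10 transformed; duplicate blinded samples were tested at 4 concentrations.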

[2] = compound: FC(F)(F)C(F)(F)C(F)(F)C(F)(F)C(F)(F)CCI [1-Iodo-1H,1H,2H,2H-perfluoroheptane]; details: in DMSO
Procedure: as §1

Pentafluoropropionamide = compound: NC(=O)C(F)(F)C(F)(F)F [Pentafluoropropionamide]; details: in DMSO
Procedure: as §1

[3] = compound: O=C(O)C(F)(F)C(F)(F)C(F)(F)C(F)(F)C(F)(F)C(F)(F)C(F)(F)C(F)F [9-H-Perfluorononanoic acid]; details: in DMSO
Procedure: as §1

[4] = compound: O=S(=O)(O)C(F)(F)C(F)(F)C(F)(F)C(F)(F)C(F)(F)C(F)(F)F [Perfluorohexanesulfonic acid]; details: in DMSO
Procedure: as §1

[5] = compound: OCCC(F)(F)C(F)(F)C(F)(F)C(F)(F)C(F)(F)C(F)(F)F [6:2 Fluorotelomer alcohol]; details: in DMSO
Procedure: as §1

[6] = compound: OCCCC(F)(F)C(F)(F)C(F)(F)C(F)(F)C(F)(F)C(F)(F)C(F)(F)F [7:3 Fluorotelomer alcohol]; details: 6700 nM; in DMSO
Procedure: as §1

SAg:CD40
level (log10) ([1]; 6700 nM): -0.005
level (log10) ([1]; 20000 nM): -0.001 ± 0.0028
level (log10) ([1]; 60000 nM): -0.02 ± 0.035
level (log10) ([2]; 6700 nM): 0.0015 ± 0.0078
level (log10) ([2]; 20000 nM): -0.0095 ± 0.0021
level (log10) ([2]; 60000 nM): -0.011 ± 0.011
level (log10) (Pentafluoropropionamide; 6700 nM): -0.041 ± 0.0071
level (log10) (Pentafluoropropionamide; 20000 nM): -0.0195 ± 0.015
level (log10) (Pentafluoropropionamide; 60000 nM): -0.0445 ± 0.0021
level (log10) ([3]; 6700 nM): -0.0265 ± 0.012
level (log10) ([3]; 20000 nM): -0.0275 ± 0.016
level (log10) ([3]; 60000 nM): -0.059 ± 0.02
level (log10) ([4]; 6700 nM): 0.001 ± 0.0071
level (log10) ([4]; 20000 nM): -0.012 ± 0.0099
level (log10) ([4]; 60000 nM): -0.029 ± 0.011
level (log10) ([5]; 6700 nM): -0.003 ± 0.0085
level (log10) ([5]; 20000 nM): 0.0005 ± 0.0021
level (log10) [6]: -0.031 ± 0.0057

SAg:CD62E/E-Selectin
level (log10) ([1]; 6700 nM): -0.0035 ± 0.0064
level (log10) ([1]; 20000 nM): -0.036 ± 0.0042
level (log10) ([1]; 60000 nM): -0.0335 ± 0.016
level (log10) ([2]; 6700 nM): 0.023 ± 0.062
level (log10) ([2]; 20000 nM): -0.0295 ± 0.0078
level (log10) ([2]; 60000 nM): 0.017 ± 0.0085
level (log10) (Pentafluoropropionamide; 6700 nM): -0.0215 ± 0.005
level (log10) (Pentafluoropropionamide; 20000 nM): -0.0095 ± 0.026
level (log10) (Pentafluoropropionamide; 60000 nM): -0.0115 ± 0.018
level (log10) ([3]; 6700 nM): -0.015 ± 0.013
level (log10) ([3]; 20000 nM): -0.0075 ± 0.013
level (log10) ([3]; 60000 nM): 0.065 ± 0.031
level (log10) ([4]; 6700 nM): -0.0115 ± 0.00071
level (log10) ([4]; 20000 nM): -0.008 ± 0.02
level (log10) ([4]; 60000 nM): 0.0405 ± 0.0064
level (log10) ([5]; 6700 nM): -0.0015 ± 0.0092
level (log10) ([5]; 20000 nM): 0.002 ± 0.027
level (log10) [6]: -0.0005 ± 0.00071

SAg:CD69
level (log10) ([1]; 6700 nM): -0.0205 ± 0.021
level (log10) ([1]; 20000 nM): -0.024 ± 0.011
level (log10) ([1]; 60000 nM): -0.035 ± 0.018
level (log10) ([2]; 6700 nM): -0.025 ± 0.011
level (log10) ([2]; 20000 nM): -0.037 ± 0.0042
level (log10) ([2]; 60000 nM): -0.036 ± 0.011
level (log10) (Pentafluoropropionamide; 6700 nM): -0.026 ± 0.013
level (log10) (Pentafluoropropionamide; 20000 nM): -0.0385 ± 0.018
level (log10) (Pentafluoropropionamide; 60000 nM): -0.026 ± 0.0071
level (log10) ([3]; 6700 nM): -0.0335 ± 0.025
level (log10) ([3]; 20000 nM): -0.034 ± 0.0085
level (log10) ([3]; 60000 nM): -0.0245 ± 0.00071
level (log10) ([4]; 6700 nM): -0.0235 ± 0.00071
level (log10) ([4]; 20000 nM): -0.0175 ± 0.012
level (log10) ([4]; 60000 nM): -0.06 ± 0.0014
level (log10) ([5]; 6700 nM): 0.012 ± 0.025
level (log10) ([5]; 20000 nM): -0.012 ± 0.016
level (log10) [6]: -0.026 ± 0.018

SAg:CXCL8/IL-8
level (log10) ([1]; 6700 nM): -0.0135 ± 0.053
level (log10) ([1]; 20000 nM): 0.001 ± 0.052
level (log10) ([1]; 60000 nM): 0.003 ± 0.024
level (log10) ([2]; 6700 nM): -0.0585 ± 0.042
level (log10) ([2]; 20000 nM): -0.061 ± 0.016
level (log10) ([2]; 60000 nM): 0.007 ± 0.042
level (log10) (Pentafluoropropionamide; 6700 nM): -0.0245 ± 0.025
level (log10) (Pentafluoropropionamide; 20000 nM): -0.0255 ± 0.036
level (log10) (Pentafluoropropionamide; 60000 nM): 0.0075 ± 0.04
level (log10) ([3]; 6700 nM): 0.01 ± 0.018
level (log10) ([3]; 20000 nM): 0.0005 ± 0.0064
level (log10) ([3]; 60000 nM): 0.0715 ± 0.013
level (log10) ([4]; 6700 nM): 0.0185 ± 0.012
level (log10) ([4]; 20000 nM): 0.019 ± 0.018
level (log10) ([4]; 60000 nM): 0.107 ± 0.04
level (log10) ([5]; 6700 nM): -0.0035 ± 0.011
level (log10) ([5]; 20000 nM): 0.0035 ± 0.0021
level (log10) [6]: -0.0085 ± 0.025

SAg:CXCL9/MIG
level (log10) ([1]; 6700 nM): 0.003 ± 0.0099
level (log10) ([1]; 20000 nM): -0.009 ± 0.0014
level (log10) ([1]; 60000 nM): 0.0015 ± 0.012
level (log10) ([2]; 6700 nM): -0.005 ± 0.013
level (log10) ([2]; 20000 nM): -0.0145 ± 0.0092
level (log10) ([2]; 60000 nM): 0.0005 ± 0.012
level (log10) (Pentafluoropropionamide; 6700 nM): -0.0145 ± 0.0021
level (log10) (Pentafluoropropionamide; 20000 nM): -0.017 ± 0.0014
level (log10) (Pentafluoropropionamide; 60000 nM): 0.009 ± 0.014
level (log10) ([3]; 6700 nM): -0.01 ± 0.017
level (log10) ([3]; 20000 nM): -0.0055 ± 0.015
level (log10) ([3]; 60000 nM): 0.0055 ± 0.0064
level (log10) ([4]; 6700 nM): 0.004
level (log10) ([4]; 20000 nM): -0.005 ± 0.0057
level (log10) ([4]; 60000 nM): 0.0035 ± 0.0078
level (log10) ([5]; 6700 nM): -0.0095 ± 0.0021
level (log10) ([5]; 20000 nM): -0.0055 ± 0.00071
level (log10) [6]: -0.0145 ± 0.005

SAg:PBMC Cytotoxicity
level (log10) ([1]; 6700 nM): -0.004 ± 0.017
level (log10) ([1]; 20000 nM): 0.0125 ± 0.053
level (log10) ([1]; 60000 nM): -0.0535 ± 0.071
level (log10) ([2]; 6700 nM): -0.016 ± 0.024
level (log10) ([2]; 20000 nM): 0.0085 ± 0.018
level (log10) ([2]; 60000 nM): -0.033 ± 0.045
level (log10) (Pentafluoropropionamide; 6700 nM): 0.0005 ± 0.052
level (log10) (Pentafluoropropionamide; 20000 nM): 0.026 ± 0.0042
level (log10) (Pentafluoropropionamide; 60000 nM): 0.0245 ± 0.012
level (log10) ([3]; 6700 nM): 0.007 ± 0.023
level (log10) ([3]; 20000 nM): 0.045 ± 0.0099
level (log10) ([3]; 60000 nM): 0.0765 ± 0.013
level (log10) ([4]; 6700 nM): -0.025 ± 0.0042
level (log10) ([4]; 20000 nM): -0.0175 ± 0.026
level (log10) ([4]; 60000 nM): 0.0085 ± 0.012
level (log10) ([5]; 6700 nM): 0.0025 ± 0.005
level (log10) ([5]; 20000 nM): 0.023 ± 0.028
level (log10) [6]: -0.0315 ± 0.018

SAg:Proliferation
level (log10) ([1]; 6700 nM): 0.004 ± 0.0042
level (log10) ([1]; 20000 nM): -0.045 ± 0.047
level (log10) ([1]; 60000 nM): -0.128 ± 0.038
level (log10) ([2]; 6700 nM): -0.014 ± 0.035
level (log10) ([2]; 20000 nM): -0.0145 ± 0.0064
level (log10) ([2]; 60000 nM): -0.15 ± 0.054
level (log10) (Pentafluoropropionamide; 6700 nM): 0.0045 ± 0.016
level (log10) (Pentafluoropropionamide; 20000 nM): 0.0135 ± 0.022
level (log10) (Pentafluoropropionamide; 60000 nM): 0.045 ± 0.0028
level (log10) ([3]; 6700 nM): 0.052 ± 0.065
level (log10) ([3]; 20000 nM): 0.0735 ± 0.037
level (log10) ([3]; 60000 nM): 0.048 ± 0.095
level (log10) ([4]; 6700 nM): -0.0215 ± 0.016
level (log10) ([4]; 20000 nM): 0.0015 ± 0.0064
level (log10) ([4]; 60000 nM): 0.021 ± 0.024
level (log10) ([5]; 6700 nM): -0.015 ± 0.027
level (log10) ([5]; 20000 nM): -0.024 ± 0.013
level (log10) [6]: -0.0205 ± 0.052

SAg:SRB
level (log10) ([1]; 6700 nM): -0.0005 ± 0.0035
level (log10) ([1]; 20000 nM): -0.002 ± 0.0028
level (log10) ([1]; 60000 nM): 0.0075 ± 0.0021
level (log10) ([2]; 6700 nM): 0.0065 ± 0.011
level (log10) ([2]; 20000 nM): 0.0015 ± 0.016
level (log10) ([2]; 60000 nM): -0.001 ± 0.0085
level (log10) (Pentafluoropropionamide; 6700 nM): -0.0005 ± 0.016
level (log10) (Pentafluoropropionamide; 20000 nM): -0.0055 ± 0.0092
level (log10) (Pentafluoropropionamide; 60000 nM): -0.01 ± 0.014
level (log10) ([3]; 6700 nM): -0.002 ± 0.025
level (log10) ([3]; 20000 nM): -0.003 ± 0.013
level (log10) ([3]; 60000 nM): -0.036 ± 0.0071
level (log10) ([4]; 6700 nM): -0.019 ± 0.0085
level (log10) ([4]; 20000 nM): -0.018 ± 0.0042
level (log10) ([4]; 60000 nM): -0.033 ± 0.03
level (log10) ([5]; 6700 nM): -0.003 ± 0.027
level (log10) ([5]; 20000 nM): 0 ± 0.02
level (log10) [6]: 0.0045 ± 0.013
